These results are taken from US20240050735A1, “SYSTEMS AND METHODS FOR TREATING AND INHIBITING WOUND INFECTIONS” (priority 2020, published 2024).

Structures are written as SMILES. Where a name gives a salt, the structure may show the parent alone.

Series [1] has as its system MRSA biofilm-infected porcine skin wound. The experiment in a line: Ex vivo anti-biofilm efficacy, standard plate counting assay. Format: cell-based, Methicillin-resistant S. aureus (MRSA) USA300. Here is the method: Same as previous tests, an ex vivo MRSA biofilm-infected porcine skin wound model was used here. First the biofilm treatment efficacy was tested when different current intensities were used with a fixed VAN loading concentration at 1 mg mL^−1. After a single treatment for 1 hour, wound tissues were incubated for 24 hours in a 37° C. incubator to allow VAN to take effect. After incubation, tissue samples were collected and evaluated for bacterial count using the standard plate counting assay for MRSA colony. […] Treating the biofilm with no current for 1 hour (only VAN diffusion) or a low current of 0.5 mA cm^−2 for 1 hour induced a minimal MRSA count reduction to 10^9.8 CFU g^−1 and 10^9.6 CFU g^−1, respectively. When 19 mA cm^−2, 38 mA cm^−2, and 75 mA cm^−2 were applied, MRSA count was further reduced to 10^8.6 CFU g^−1, 10^8.3 CFU g^−1 and 10^7.6 CFU g^−1, respectively (see FIGS. 5A and 5F). […] Because 75 mA cm^−2 had better anti-biofilm efficacy than other conditions, it was selected for the following tests.
The fetal pig skin samples (approximately 30×30 mm) were immersed in 10% (v/v) bleach for 5 minutes after hair removal. Then, skin samples were sterilized in 70% ethanol for 30 minutes. The surface of skin sample was further cleaned by 10% povidone-iodine and 70% isopropanol to prevent contamination. A 6-mm disposable biopsy punch was used to create an excisional wound. Samples were put into sterile 10-cm petri-dishes filled with sterile PBS (6 mL). The wound was then inoculated with 1×10^8 CFU mL^−1 MRSA bacteria solution (20 μL). The bacteria were allowed to grow in a 37° C. Heratherm™ compact microbiological incubator (ThermoFischer Scientific™, Waltham, Mass., USA) for 48 hours to form mature biofilms.
The HIC-based biofilm treatment system 100 embodiment shown in FIG. 18 was used to test electrical debridement treatment of high-intensity current on ex vivo MRSA biofilm infected skin wounds. The MRSA biofilm infected skin wound was sandwiched between anode and cathode HIC-based devices (i.e., the working device 104 and the counter device 106). To evaluate the anti-biofilm effect of high current intensity only, PBS (5 mL) was filled in both drug/buffer chamber 114 and PBS chamber 122 and then 0.5 mA cm^−2, 19 mA cm^−2, 38 mA cm^−2, and 75 mA cm^−2 was applied for 1 hour, respectively. The device/skin wound contact area was 0.502 cm^2. Skin samples were collected by 8-mm biopsy punch immediately after test or at 24 hours after testing. To evaluate the biofilm thickness before and after different treatments, samples were embedded in tissue freezing medium (OCT) and sectioned at 8 μm. After being imaged in microscope, the thickness of biofilms after different treatments were measured using ImageJ software. To evaluate the colony-forming unit (CFU) counts per gram of MRSA from infected skin wounds, samples were homogenized in PBS (10 mL) and diluted with PBS, and then transferred to standard plate counting assay. The bactericidal efficacy was calculated as follows:
The HIC-based biofilm treatment system 100 embodiment shown in FIG. 18 was used to evaluate combined biofilm treatment efficacy of electrical debridement and VAN delivery. To evaluate the anti-biofilm treatment efficacy of current intensity, 0 mA cm^−2 (passive diffusion) to 75 mA cm^−2 was applied on the HIC-based biofilm treatment system 100 with 1 mg mL^−1 VAN loaded in HIC-based working device 104, respectively. […] To further enhance the anti-biofilm efficacy of electrical debridement and high concentration delivery of VAN, two treatments were applied, named protocol #1 and protocol #2. Protocol #1 applied two treatments (treatment: 75 mA cm^−2 for 1 hour, 1 mg mL^−1 VAN loaded in HIC-based working device 104) separated by 6 hours. Protocol #2 applied two treatments (treatment same as Protocol #1) separated by 24 hours. CFU was counted 24 hours after last treatment using the standard spread counting assay. The bactericidal efficacy was calculated accordingly. […]

The next series concerns HDFa cells. The experiment in a line: Cell toxicity of high concentration of antibiotics, LIVE/DEAD stain. Particulars: 4.5 mg mL^−1 VAN, 48 hour incubation. Format: cell-based, human. Here is the method: (§1) To evaluate the cell toxicity of the high concentration of antibiotics, HaCaT cells and HDFa cells were used. 2×10^4 HaCat cells and 2×10^3 HDFa cells were seeded in each well of a 96-well plate. After being cultured in an incubator under 37° C. and 5% CO2 for 24 hours, 4.5 mg mL^−1 VAN and 20 mg mL^−1 DAP were added to the culture media, respectively. Both HaCat cells and HDFa cells were treated by VAN for two days, and exposed to DAP for one day, respectively. The cell toxicity of the two cells at the end time points were evaluated by LIVE/DEAD stain and visualized by a confocal laser scanning microscope (CLSM, LSM 710, Zeiss, Germany).

In another series the test system is HaCaT cells. The series is described as above. Format: cell-based, human. The settings on record: 4.5 mg mL^−1 VAN, 48 hour incubation. Here is the method:
as §1

Series [2] concerns S. aureus biofilms. The settings on record: cited from earlier work.
Series [3] deals with S. aureus biofilms. The settings on record: cited from earlier work. This is another data set of the same source.
In series [4] the test system is S. aureus persister cells. Particulars: even at 100×MIC; cited from earlier work.
[5] abbreviates: 75 mA cm^−2 1 hour, 1 mg mL^−1 VAN, 24 hours after.

Take `CN[C@H](CC(C)C)C(=O)N[C@H]1C(=O)N[C@@H](CC(N)=O)C(=O)N[C@H]2C(=O)N[C@H]3C(=O)N[C@H](C(=O)N[C@H](C(=O)O)c4cc(O)cc(O)c4-c4cc3ccc4O)[C@H](O)c3ccc(c(Cl)c3)Oc3cc2cc(c3O[C@@H]2O[C@H](CO)[C@@H](O)[C@H](O)[C@H]2O[C@H]2C[C@](C)(N)[C@H](O)[C@H](C)O2)Oc2ccc(cc2Cl)[C@H]1O` [VAN, Vancomycin hydrochloride]: the bactericidal efficacy is given as 4.4±2.76 times in series [1] (0.5 mA cm^−2 1 hour, 1 mg mL^−1 VAN, 24 hours after); 57.8±50.30 times in series [1] (19 mA cm^−2 1 hour, 1 mg mL^−1 VAN, 24 hours after); 81.4±13.34 times in series [1] (38 mA cm^−2 1 hour, 1 mg mL^−1 VAN, 24 hours after); 452.8±115.32 times in series [1] (setting [5]); 112.6±13.58 times in series [1] (75 mA cm^−2 1 hour, 3 mg mL^−1 VAN loading); 5.1±3.80 times in series [1] (75 mA cm^−2 1 hour, 5 mg mL^−1 VAN loading). The bactericidal efficacy came out at 9.7±2.92 times in series [1] (75 mA cm^−2 1 hour, 10 mg mL^−1 VAN loading) and 2.7±2.06 times in series [1] (passive diffusion 1 hour, 1 mg mL^−1 VAN, 24 hours after). This compound also registered a bactericidal rate in series [1] (setting [5]) of 99.8%. Besides, in series [1] (single 1 hour treatment, 75 mA cm^−2, 1 mg mL^−1 VAN), the “MRSA bacterial count reduction in wound tissue” value was found to be 2.6 login scales. Also, the “viability of skin cells” value in the series with HDFa cells and in the series on HaCaT cells was “not affected” throughout. In addition, the “diffusion coefficient in S. aureus biofilms” value in the series on S. aureus biofilms [2] (2012 study) was 0.2 μm 2 s^−1. The “slower than its diffusion in water” value with S. aureus biofilms [2] (S. aureus biofilms) was “more than 1,000 times”. The “biofilm bacterial density reduction” value with S. aureus biofilms [3] (2 mA (0.17 mA cm^−2) for 24 hours with 32 μg mL^−1 vancomycin) was 1 log10 scale. The antibacterial effect result with S. aureus biofilms [3] (vancomycin alone) was “no antibacterial effect”. In series [4], the “killing of S. aureus persister cells” value is recorded as “not capable of killing”.
